US4180587A, “Ureylene phenylene anionic naphthalenesulfonic acids as complement inhibitors” (American Cyanamid Company, priority 1978, dated 1979)
Read-outs that look alike come from different tables or passages of the source.

Legend:
complement system = details: reported in literature; cited from earlier work
human C1 = assay: Test Code 026 (C1 inhibitor): ability of activated human C1 to destroy fluid phase human C2 in the presence of C4; assay type: biochemical; details: activity in wells, twofold serial dilution; higher well number indicates higher activity
Text: (§1) An active inhibitor protects C2 from C1 and C4; (ii) Test Code 035 (C3-C9 inhibitor)--This test determines the ability of the late components of human complement (C3-C9) to lyse EAC 142 in the presence of appropriate dilutions of the test compound. An active inhibitor protects EAC 142 from lysis by human C3-C9; (iii) Test Code 036 (C-Shunt inhibitor)--In this test human erythrocytes rendered fragile are lysed in autologous serum via the shunt pathway activated by cobra venom factor in the presence of appropriate dilutions of the test compound. Inhibition of the shunt pathway results in failure of lysis; (iv) Forssman Vasculitis Test--Here, the well known complement dependent lesion, Forssman vasculitis, is produced in guinea pigs by intradermal injection of rabbit anti-Forssman antiserum. […]

whole complement = assay: Complement Level Reduction Test: serum of dosed guinea pigs tested for whole complement by capillary tube assay; assay type: in vivo, guinea pig; details: intraperitoneal, 200 mg/kg
Text: An active inhibitor protects C2 from C1 and C4; (ii) Test Code 035 (C3-C9 inhibitor)--This test determines the ability of the late components of human complement (C3-C9) to lyse EAC 142 in the presence of appropriate dilutions of the test compound. An active inhibitor protects EAC 142 from lysis by human C3-C9; (iii) Test Code 036 (C-Shunt inhibitor)--In this test human erythrocytes rendered fragile are lysed in autologous serum via the shunt pathway activated by cobra venom factor in the presence of appropriate dilutions of the test compound. Inhibition of the shunt pathway results in failure of lysis; (iv) Forssman Vasculitis Test--Here, the well known complement dependent lesion, Forssman vasculitis, is produced in guinea pigs by intradermal injection of rabbit anti-Forssman antiserum. The lesion is measured in terms of diameter, edema and hemorrhage and the extent to which a combined index of these is inhibited by prior intraperitoneal injection of the test compound at 200 mg/kg is then reported, unless otherwise stated; (v) Forssman Shock Test--Lethal shock is produced in guinea pigs by an i.v. injection of anti-Forssman antiserum and the harmonic mean death time of treated guinea pigs is compared with that of simultaneous controls; (vi) Complement Level Reduction Test--In this test, the above dosed guinea pigs, or others, are bled for serum and the complement level is determined in undiluted serum by the capillary tube method of U.S. Pat. No. 3,876,376 and compared to undosed control guinea pigs; and (vii) Cap 50 Test--Here, appropriate amounts of the test compound are added to a pool of guinea pig serum in vitro, after which the undiluted serum capillary tube assay referred to above is run. The concentration of compound inhibiting 50% is reported.
With reference to Table I, guinea pigs weighing about 300 g were dosed intravenously (i.v.) or intraperitoneally (i.p.) with 200 mg/kg of the test compound dissolved in saline and adjusted to pH 7-8. […] The serum was tested for whole complement using the capillary tube assay. Percent inhibition was calculated by comparison with simultaneous controls. The results appear in Table I together with results of tests code 026, 035, 036, Cap 50, % inhibition and Forssman shock.

[1] = tested on: late components of human complement (C3-C9); assay: Test Code 035 (C3-C9 inhibitor): lysis of EAC 142 by late components of human complement; assay type: cell-based; details: activity in wells, twofold serial dilution; higher well number indicates higher activity
Text: as §1

[2] = reported in literature; cited from earlier work
[3] = tested on: total hemolytic complement activity; details: in vivo; judged by reduction in total hemolytic complement activity; cited from earlier work
[4] = tested on: total hemolytic complement activity; details: in vitro; judged by reduction in total hemolytic complement activity; cited from earlier work
shunt pathway = assay: Test Code 036 (C-Shunt inhibitor): lysis of fragile human erythrocytes in autologous serum via shunt pathway activated by cobra venom factor; assay type: cell-based; details: activity in wells, twofold serial dilution
Text: as §1

## Nc1ccc2cc(S(=O)(=O)[O-])cc(O)c2c1N=Nc1ccc(NC(=O)Nc2ccc(N=Nc3c(N)ccc4cc(S(=O)(=O)[O-])cc(O)c34)c(S(=O)(=O)[O-])c2)cc1S(=O)(=O)[O-].[Na+].[Na+].[Na+].[Na+] [chlorazol fast pink, 3,3'-ureylenebis[6-(2-amino-8-hydroxy-6-sulfo-1-naphthylazo)benzenesulfonic acid], tetrasodium salt]
Complement system
  anticomplementary effect / activity as complement inhibitor: anticomplementary effect

## heparin
Complement system
  anticomplementary effect / activity as complement inhibitor: anticomplementary effect

## Cc1ccc(C(=O)Nc2ccc(S(=O)(=O)O)c3cc(S(=O)(=O)O)cc(S(=O)(=O)O)c23)cc1NC(=O)c1cccc(NC(=O)Nc2cccc(C(=O)Nc3cc(C(=O)Nc4ccc(S(=O)(=O)O)c5cc(S(=O)(=O)O)cc(S(=O)(=O)O)c45)ccc3C)c2)c1 [Suramin]
Human C1
  C1 026 Wells: +4 Wells
Whole complement; 30 minutes
  In Vivo Activity (Guinea Pig) % Inhibition: -9%
Whole complement; 60 minutes
  In Vivo Activity (Guinea Pig) % Inhibition: -17%
Whole complement; 120 minutes
  In Vivo Activity (Guinea Pig) % Inhibition: -44%
[1]
  C-Late 035 Wells: +2 Wells
Complement system
  anticomplementary effect / activity as complement inhibitor: moderately active as a complement inhibitor

## NC[C@H]1CC[C@H](C(=O)O)CC1 [tranexamic acid]
[2]
  treatment of hereditary angioneurotic edema: used with success

## pentosan-polysulfoester
[3]
  anticomplementary activity on human serum: anticomplementary activity
[4]
  anticomplementary activity on human serum: anticomplementary activity

## NCCCCCC(=O)O [epsilon-aminocaproic acid]
[2]
  treatment of hereditary angioneurotic edema: used with success

## Cc1ccc(C(=O)Nc2cc(C(=O)Nc3ccc(S(=O)(=O)[O-])c4cc(S(=O)(=O)[O-])cc(S(=O)(=O)[O-])c34)ccc2C)cc1NC(=O)Nc1cc(C(=O)Nc2cc(C(=O)Nc3ccc(S(=O)(=O)[O-])c4cc(S(=O)(=O)[O-])cc(S(=O)(=O)[O-])c34)ccc2C)ccc1C.[Na+].[Na+].[Na+].[Na+].[Na+].[Na+] [Example 3, 8,8'-[Ureylenebis[(4-methyl-3,1-phenylenecarbonyl)imino(4-methyl-3,1-phenylenecarbonyl)imino]]di-1,3,5-naphthalenetrisulfonic acid, hexasodium salt]
Human C1
  C1 026 Wells: +3 Wells
Shunt pathway
  Shunt Inhibition 036 Wells: N
Whole complement; 30 minutes
  In Vivo Activity (Guinea Pig) % Inhibition: -58%
Whole complement; 60 minutes
  In Vivo Activity (Guinea Pig) % Inhibition: -65%
Whole complement; 120 minutes
  In Vivo Activity (Guinea Pig) % Inhibition: -77%
[1]
  C-Late 035 Wells: +3 Wells
